Data published in patent publication US8084479B2, “Thiazole compounds and methods of use” (Amgen Inc., priority 2006, dated 2011).

Biological target: PKBα (Homo sapiens, UniProt P31749)
Assay: PKB kinase assay (P33-labeled ATP, peptide substrate, filter plate)
Type: biochemical
Conditions: PKBα enzyme (full length or kinase domain with pleckstrin domain deleted)
Excerpt: The kinase assay for evaluating PKB activity comprises active PKB enzymes, a PKB specific substrate, and P^33-labeled ATP. […] The phosphorylated substrate was captured by a phosphocellulose membrane filter plate (MLLIPORE) and measured by a Wallac Microbeta liquid scintillation counter (Perkin Elmer).

PKBα, sequence (P31749 118-480 limits assumed): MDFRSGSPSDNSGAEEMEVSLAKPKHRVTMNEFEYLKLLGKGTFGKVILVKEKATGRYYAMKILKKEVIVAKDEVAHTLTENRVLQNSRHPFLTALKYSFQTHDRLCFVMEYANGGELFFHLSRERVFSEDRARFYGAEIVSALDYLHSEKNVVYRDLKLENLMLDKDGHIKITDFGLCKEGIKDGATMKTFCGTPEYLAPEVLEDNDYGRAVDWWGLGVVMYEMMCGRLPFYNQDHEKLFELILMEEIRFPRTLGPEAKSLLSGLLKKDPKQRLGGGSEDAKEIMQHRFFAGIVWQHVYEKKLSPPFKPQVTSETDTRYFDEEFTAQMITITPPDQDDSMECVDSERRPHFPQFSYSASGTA

| Compound | IC50 [nM] |
| --- | --- |
| N[C@H](CNc1ncc(-c2cnc3c(c2)CC(=O)N3)s1)Cc1ccc(C(F)(F)F)nc1 [Example 227, 5-(2-((S)-2-amino-3-(6-(trifluoromethyl)pyridin-3-yl)propylamino)thiazol-5-yl)-1H-pyrrolo[2,3-b]pyridin-2(3H)-one] | 50 to 1000 |
| C[C@@H](c1ccc(C(F)(F)F)cc1)[C@H](N)CNc1ncc(-c2cnc3c(c2)CC(=O)N3)s1 [Example 228, 5-(2-((2S,3S)-2-amino-3-(4-(trifluoromethyl)phenyl)butylamino)thiazol-5-yl)-1H-pyrrolo[2,3-b]pyridin-2(3H)-one] | 50 to 1000 |
| C[C@@H](Nc1ncc(-c2ccc3c(c2)CC(=O)N3)s1)[C@@H](N)Cc1ccc(C(F)(F)F)cc1 [Example 229, 5-(2-((2R,3S)-3-amino-4-(4-(trifluoromethyl)phenyl)butan-2-ylamino)thiazol-5-yl)indolin-2-one] | < 50 |
| C[C@@H](Nc1ncc(-c2ccc3cnccc3c2)s1)[C@@H](N)Cc1ccc(C(F)(F)F)cc1 [Example 230, N-((2R,3S)-3-amino-4-(4-(trifluoromethyl)phenyl)butan-2-yl)-5-(isoquinolin-6-yl)thiazol-2-amine] | < 50 |
| C[C@@H](Nc1ncc(-c2ccc3[nH]c(=O)oc3c2)s1)[C@@H](N)Cc1ccc(C(F)(F)F)cc1 [Example 231, 6-(2-((2R,3S)-3-amino-4-(4-(trifluoromethyl)phenyl)butan-2-ylamino)thiazol-5-yl)benzo[d]oxazol-2(3H)-one] | 50 to 1000 |
| C[C@@H](Nc1ncc(-c2ccc3[nH]c(=O)n(C)c3c2)s1)[C@@H](N)Cc1ccc(C(F)(F)F)cc1 [Example 232, 6-(2-((2R,3S)-3-amino-4-(4-(trifluoromethyl)phenyl)butan-2-ylamino)thiazol-5-yl)-1-methyl-1H-benzo[d]imidazol-2(3H)-one] | 50 to 1000 |
| C[C@@H](c1ccc(C(F)(F)F)nc1)[C@H](N)CNc1ncc(-c2ccc3c(c2)CC(=O)N3)s1 [Example 233, 5-(2-((2S,3S)-2-amino-3-(6-(trifluoromethyl)pyridin-3-yl)butylamino)thiazol-5-yl)indolin-2-one] | < 50 |
| C[C@H](Nc1ncc(-c2ccc3c(c2)CC(=O)N3)s1)[C@@H](N)Cc1ccc(C(F)(F)F)cc1 [Example 234, 5-(2-((2S,3S)-3-amino-4-(4-(trifluoromethyl)phenyl)butan-2-ylamino)thiazol-5-yl)indolin-2-one] | 1000 to 10000 |
| C[C@H](Nc1ncc(-c2ccc3cnccc3c2)s1)[C@@H](N)Cc1ccc(C(F)(F)F)cc1 [Example 235, N-((2S,3S)-3-amino-4-(4-(trifluoromethyl)phenyl)butan-2-yl)-5-(isoquinolin-6-yl)thiazol-2-amine] | 50 to 1000 |
| C[C@H](Nc1ncc(-c2ccc3[nH]c(=O)oc3c2)s1)[C@@H](N)Cc1ccc(C(F)(F)F)cc1 [Example 236, 6-(2-((2S,3S)-3-amino-4-(4-(trifluoromethyl)phenyl)butan-2-ylamino)thiazol-5-yl)benzo[d]oxazol-2(3H)-one] | 1000 to 10000 |
| C[C@H](Nc1ncc(-c2ccc3[nH]c(=O)n(C)c3c2)s1)[C@@H](N)Cc1ccc(C(F)(F)F)cc1 [Example 237, 6-(2-((2S,3S)-3-amino-4-(4-(trifluoromethyl)phenyl)butan-2-ylamino)thiazol-5-yl)-1-methyl-1H-benzo[d]imidazol-2(3H)-one] | 1000 to 10000 |
| COc1cc(C[C@H](N)CNc2ncc(-c3ccc4c(c3)CNC4=O)s2)cnc1C(F)(F)F [Example 238, 5-(2-((S)-2-amino-3-(5-methoxy-6-(trifluoromethyl)pyridin-3-yl)propylamino)thiazol-5-yl)isoindolin-1-one] | 50 to 1000 |
| N[C@H](CNc1ncc(-c2ccc3c(c2)CNC3=O)s1)Cc1ccc(Cl)s1 [Example 239, 3,5-(2-((S)-2-amino-3-(5-chlorothiophen-2-yl)propylamino)thiazol-5-yl)isoindolin-1-one] | 1000 to 10000 |
| N[C@H](CNc1ncc(-c2ccc3c(c2)CNC3=O)s1)Cc1ccc(C(F)(F)F)cc1 [Example 240, 5-(2-((S)-2-amino-3-(4-(trifluoromethyl)phenyl)propylamino)thiazol-5-yl)isoindolin-1-one] | 50 to 1000 |
| COC[C@@H](c1ccc(C(F)(F)F)cc1)[C@H](N)CNc1ncc(-c2ccc3c(c2)CC(=O)N3)s1 [Example 241, 5-(2-((2S,3S)-2-amino-4-methoxy-3-(4-(trifluoromethyl)phenyl)butylamino)thiazol-5-yl)indolin-2-one] | < 50 |
| CC(C)(C)C(=O)OC[C@@H](c1ccc(C(F)(F)F)cc1)[C@H](N)CNc1ncc(-c2ccc3c(c2)CC(=O)N3)s1 [Example 242, (2S,3S)-3-amino-4-(5-(2-oxoindolin-5-yl)thiazol-2-ylamino)-2-(4-(trifluoromethyl)phenyl)butyl pivalate] | 50 to 1000 |
| CC(O)[C@@H](c1ccc(C(F)(F)F)cc1)[C@H](N)CNc1ncc(-c2ccc3c(c2)CC(=O)N3)s1 (stereo partly drawn) [Example 243, 5-(2-((2S,3S)-2-amino-4-hydroxy-3-(4-(trifluoromethyl)phenyl)pentylamino)thiazol-5-yl)indolin-2-one] | < 50 |
| COCOC(c1ccc(C(F)(F)F)cc1)C(N)CNc1ncc(-c2ccc3c(c2)CC(=O)N3)s1 (centres unmarked) [Example 244] | 1000 to 10000 |
| CC(=O)OC[C@@H](c1ccc(C(F)(F)F)cc1)[C@H](N)CNc1ncc(-c2ccc3c(c2)CC(=O)N3)s1 [Example 248, (2S,3S)-3-amino-4-(5-(2-oxoindolin-5-yl)thiazol-2-ylamino)-2-(4-(trifluoromethyl)phenyl)butyl acetate] | 50 to 1000 |
| Cn1c(=O)[nH]c2ccc(-c3sc(NC[C@@H](N)Cc4ccc(C(F)(F)F)cc4)nc3-c3ccccc3F)cc21 [Example 249, 6-(2-((S)-2-amino-3-(4-(trifluoromethyl)phenyl)propylamino)-4-(2-fluorophenyl)thiazol-5-yl)-1-methyl-1H-benzo[d]imidazol-2(3H)-one] | 1000 to 10000 |
| Cn1c(=O)[nH]c2ccc(-c3sc(NC[C@@H](N)Cc4ccc(F)cc4)nc3-c3ccccc3F)cc21 [Example 250, 6-(2-((S)-2-amino-3-(4-fluorophenyl)propylamino)-4-(2-fluorophenyl)thiazol-5-yl)-1-methyl-1H-benzo[d]imidazol-2(3H)-one] | 1000 to 10000 |
| N[C@H](CNc1ncc(-c2ccc3c(c2)OCO3)s1)Cc1c[nH]c2ccccc12 [Example 251, N—((S)-2-amino-3-(1H-indol-3-yl)propyl)-5-(benzo[d][1,3]dioxol-5-yl)thiazol-2-amine] | 1000 to 10000 |
| N[C@H](CNc1ncc(-c2ccc3cn[nH]c(=O)c3c2)s1)Cc1ccc(C(F)(F)F)cc1 [Example 252, 7-(2-((S)-2-amino-3-(4-(trifluoromethyl)phenyl)propylamino)thiazol-5-yl)phthalazin-1 (211)-one] | 1000 to 10000 |
| N[C@H](CNc1ncc(-c2ccc3cncnc3c2)s1)Cc1ccc(C(F)(F)F)cc1 [Example 253, N—((S)-2-Amino-3-(4-(trifluoromethyl)phenyl)propyl)-5-(quinazolin-7-yl)thiazol-2-amine] | < 50 |
| N[C@H](CNc1ncc(-c2ccc3nnccc3c2)s1)Cc1ccc(C(F)(F)F)cc1 [Example 254, N—((S)-2-amino-3-(4-(trifluoromethyl)phenyl)propyl)-5-(cinnolin-6-yl)thiazol-2-amine] | 50 to 1000 |
| N[C@H](CNc1nc(CCO)c(-c2ccc3cnccc3c2)s1)Cc1ccc(C(F)(F)F)cc1 [Example 255, 2-(2-((S)-2-amino-3-(4-(trifluoromethyl)phenyl)propylamino)-5-(isoquinolin-6-yl)thiazol-4-yl)ethanol] | 50 to 1000 |
